# Assay results published in PMC6132687, “Stem cells are the most sensitive screening tool to identify toxicity of GATA4-targeted novel small-molecule compounds” (Archives of Toxicology, 2018).
# Tests used:
# NRVCs = tested on: NRVCs; parameters: method as in Välimäki et al. [2017]; settings: concentrations up to 50 µM; ref Välimäki et al. [2017]; cited from earlier work
# hiPSC-CMs = assay: MTT assay in hiPSC-CMs; assay type: cell-based, human; settings: 24 h
# Protocol: The cells were exposed to the test compounds for 24 h and cytotoxicity was quantified with MTT and LDH assays as described previously (Talman et al. [2011]). For the determination of cell membrane integrity, 50 µl of medium from each well was transferred onto a new 96-well plate followed by addition of 50 µl of substrate solution containing 1.3 mM β-nicotinamide adenine dinucleotide, 660 µM iodonitrotetrazolium, 54 mM L(+)-lactic acid, 280 µM phenazine methosulphate and 0.2 M Tris–HCl (pH 8.0). After a 30-min incubation, the reaction was stopped by adding 50 µl of 1 M acetic acid to each well and absorbance was measured at 490 nm using Victor2 plate reader (PerkinElmer, Turku, Finland). Spontaneous LDH release was measured from untreated cells, maximal LDH release from cells lysed with 0.9% Triton X-100 and background absorbance was measured from wells without cells. After background extraction, cytotoxicity was calculated as follows: cytotoxicity (%) = [(sample − spontaneous LDH release)/(maximal LDH release − spontaneous LDH release)] × 100. For quantification of metabolic activity, 3-(4,5-dimethylthiazol-2-yl)-2,5-diphenyltetrazolium bromide (MTT) was added to the cells at a final concentration of 0.5 mg/ml followed by 2 h incubation in cell culture conditions. […] Absorbance was measured at 550 nm and absorbance at 650 nm was subtracted as background. […]
SMILES,toxicity in NRVCs (NRVCs),increase in hiPSC-CM metabolic activity (hiPSC-CMs)
CCN(CC)c1ccc(NC(=O)c2c(-c3ccccc3)noc2C)cc1 [3i-1000],no toxicity,–
CCN(CC)c1ccc(NC(=O)c2c(C)noc2-c2cc(C)on2)cc1 [3i-1047],–,51%
